Measured values published in patent US20040097594A1 (priority 1998, published 2004).
Like-named read-outs stand apart in the source and are kept apart here.

Key:
HIV-1 (strain IIIB) = experiment: microbe, parasite or virus in culture; type: cell-based; details: lower line of each compound's entry, read-out: IC50 (MT-4 cells)
HIV-1 protease = HIV-1 protease (Human immunodeficiency virus type 1 group M subtype B, UniProt P04585); experiment: biochemical
[1] = Human immunodeficiency virus 1, 120 h, MT4 cells infected with HIV-1 strain IIIB, 5 days
[2] = HIV-1 protease, upper line of each compound's entry, read-out: Ki (enzyme)
[3] = Human immunodeficiency virus 1, IIIB, MT4, 120 h, […]

Row | SMILES | IC50 (HIV-1 (strain IIIB); [1]) | Ki (HIV-1 protease; [2]) | IC50 (HIV-1 (strain IIIB); [3]) | Ki (HIV-1 protease)
1 | COC(=O)Nc1n[nH]c2ccc(S(=O)(=O)N(C[C@@H](O)[C@H](Cc3ccccc3)NC(=O)OC3COCOC3)OC3CCCC3)cc12 [Compound 104, 1,3-Dioxan-5-yl-N-(1S,2R)-1-benzyl-3-[(cyclopentyloxy)(3-(carbomethoxyamino)-indazole-5-ylsulfonyl)amino]-2-hydroxypropylcarbamate] | ≤ 100 nM | < 1 nM | – | –
2 | O=C(N[C@@H](Cc1ccccc1)[C@H](O)CN(OC1CCCCC1)S(=O)(=O)c1ccc2c(c1)OCO2)O[C@H]1CO[C@H]2OCC[C@H]21 [Compound 155, (3R,3aS,6aR)hexahydrofuro[2,3-b]furan-3-yl(1S,2R)-3-[(1,3-benzodioxol-5-ylsulfonyl)(cyclohexyloxy)amino]-1-benzyl-2-hydroxypropylcarbamate] | ≤ 100 nM | < 1 nM | – | –
3 | Nc1cccc(S(=O)(=O)N(C[C@@H](O)[C@H](Cc2ccccc2)NC(=O)O[C@H]2CCOC2)OC2CCCC2)c1 [Compound 27, (3S)tetrahydro-3-furanyl N-(1S,2R)-3-[[(3-aminophenyl)sulfonyl](cyclopentyloxy)amino]-1-benzyl-2-hydroxypropylcarbamate] | 500 to 1000 nM | < 1 nM | – | –
4 | CS(=O)(=O)Nc1nc2cc(S(=O)(=O)N(C[C@@H](O)[C@H](Cc3ccccc3)NC(=O)O[C@H]3CO[C@H]4OCC[C@H]43)OC3CCCC3)ccc2[nH]1 [Compound 40, (3R,3aS,6aR)Hexahydrofuro[2,3-b]furan-3-yl-N-((1S,2R)-1-benzyl-3-(cyclopentyloxy)(2-[(methylsulfonyl)amino]benzimidazol-5-ylsulfonyl)amino-2-hydroxypropyl)carbamate] | ≤ 100 nM | < 1 nM | – | –
5 | CNc1cccc(S(=O)(=O)N(C[C@@H](O)[C@H](Cc2ccccc2)NC(=O)O[C@H]2CO[C@H]3OCC[C@H]32)OC(C)C)c1 [Compound 127] | ≤ 100 nM | < 1 nM | – | –
6 | CONC(=O)CNc1cccc(S(=O)(=O)N(CC(O)C(Cc2ccccc2)NC(=O)OC2COC3OCCC23)OC2CCCC2)c1 (mixture of isomers) [Example 168, (3R,3aS,6aR)hexahydrofuro[2,3-b]furan-3-yl N-[(1S,2R)-1-benzyl-3-((cyclopentyloxy)[3-(2-[methoxyamino]-2-oxoethylamino)phenyl]sulfonylamino)-2-hydroxypropyl]carbamate and (3S,3aR,6aS)hexahydrofuro[2,3-b]furan-3-yl N-[(1S,2R)-1-benzyl-3-((cyclopentyloxy)[3-(2-[methoxyamino]-2-oxoethylamino)phenyl]sulfonylamino)-2-hydroxypropyl]carbamate] | ≤ 100 nM | < 1 nM | – | –
7 | O=C(N[C@@H](Cc1ccccc1)[C@H](O)CN(OC1CCCCC1)S(=O)(=O)c1ccc2c(c1)OCCO2)O[C@H]1CO[C@H]2OCC[C@H]21 [Compound 156, (3R,3aS,6aR)hexahydrofuro[2,3-b]furan-3-yl(1S,2R)-1-benzyl-3-[(cyclohexyloxy)(2,3-dihydro-1,4-benzodioxin-6-ylsulfonyl)amino]-2-hydroxypropylcarbamate] | ≤ 100 nM | < 1 nM | – | –
8 | COc1ccc(S(=O)(=O)N(C[C@@H](O)[C@H](Cc2ccccc2)NC(=O)[C@H](CC(N)=O)NC(=O)c2ccc3ccccc3n2)OC2CCOCC2)cc1 [Compound 76, (2S)-N-(1S,2R)-1-benzyl-2-hydroxy-3-[[(4-methoxyphenyl)sulfonyl](tetrahydro-2H-pyran-4-yloxy)amino]propyl-2-[(2-quinolinylcarbonyl)amino]butanediamide] | – | < 1 nM | 100 to 500 nM | –
9 | O=C(N[C@@H](Cc1ccccc1)[C@H](O)CN(OC1CCCC1)S(=O)(=O)c1ccc2c(c1)OCO2)OC1CO[C@H]2OCC[C@@H]12 (stereo partly drawn) [Compound 138, (3R,3aS,6aR)hexahydrofuro[2,3-b]furan-3-yl N-(1S,2R)-3-[(1,3-benzodioxol-5-ylsulfonyl)(cyclopentyloxy)amino)-1-benzyl-2-hydroxypropylcarbamate] | ≤ 100 nM | – | – | < 1 nM
10 | O=C(N[C@@H](Cc1ccccc1)[C@H](O)CN(OC1CCCC1)S(=O)(=O)c1cccc(OCCO)c1)O[C@H]1CO[C@H]2OCC[C@H]21 [Compound 97, (3R,3aS,6aR)hexahydrofuro[2,3-b]furan-3-yl N-[(1S,2R)-1-benzyl-3-((cyclopentyloxy) [3-(2-hydroxyethoxy)phenyl]sulfonylamino)-2-hydroxypropyl]carbamate] | ≤ 100 nM | < 1 nM | – | –
11 | COc1ccc(S(=O)(=O)N(C[C@@H](O)[C@H](Cc2ccccc2)NC(=O)c2cccc(O)c2C)OC2CCOCC2)cc1 [Compound 75, N-(1S,2R)-1-benzyl-2-hydroxy-3-[[(4-methoxyphenyl)sulfonyl](tetrahydro-2H-pyran-4-yloxy)amino]propyl-3-hydroxy-2-methylbenzamide] | > 500 nM | < 1 nM | – | –
12 | O=C(N[C@@H](Cc1ccccc1)[C@H](O)CN(OC1CCOCC1)S(=O)(=O)c1cccc(O)c1)O[C@H]1CO[C@H]2OCC[C@H]21 [Compound 148, (3R,3aS,6aR)hexahydrofuro[2,3-b]furan-3-yl 1-benzyl-2-hydroxy-3-[[(3-hydroxyphenyl)sulfonyl](tetrahydro-2H-pyran-4-yloxy)amino]propylcarbamate] | ≤ 100 nM | < 1 nM | – | –
13 | COC(=O)Nc1nc2cc(S(=O)(=O)N(C[C@@H](O)[C@H](Cc3ccccc3)NC(=O)OC3CO[C@H]4OCC[C@@H]34)OC3CCCC3)ccc2[nH]1 (mixture of isomers) [Compound 54, (3aS,6aR)Hexahydrofuro[2,3-b]furan-3-yl N-(1S,2R)-1-benzyl-3-[(cyclopentyloxy)(2-[(methoxycarbonyl)amino]-1H benzimidazol-5-ylsulfonyl)amino]-2-hydroxypropylcarbamate] | ≤ 100 nM | < 1 nM | – | –
14 | NC(=O)C[C@H](NC(=O)c1ccc2ccccc2n1)C(=O)N[C@@H](Cc1ccccc1)[C@H](O)CN(OC1CCCC1)S(=O)(=O)c1cccc(N)c1 [Compound 49, (2S)-N^1-(1S,2R)-3-[[(3-aminophenyl)sulfonyl](cyclopentyloxy)amino]-1-benzyl-2-hydroxypropyl-2-[(2-quinolinylcarbonyl)amino]butanediamide] | ≤ 100 nM | < 1 nM | – | –
15 | COc1ccc(S(=O)(=O)N(C[C@@H](O)[C@H](Cc2ccccc2)NC(=O)[C@H](CC(N)=O)NC(=O)c2ccc3ccccc3n2)OC2CCCC2)cc1 [Compound 50] | ≤ 100 nM | < 1 nM | – | –
16 | CC(C)ON(C[C@@H](O)[C@H](Cc1ccccc1)NC(=O)OC(C)(C)C)S(=O)(=O)c1ccc(N)c(N)c1 [Compound 2] | > 1000 nM | 10 to 100 nM | – | –
17 | O=C(N[C@@H](Cc1ccccc1)[C@H](O)CN(OC1CCCC1)S(=O)(=O)c1ccc2[nH]ncc2c1)OC1CO[C@H]2OCC[C@@H]12 (stereo partly drawn) [Compound 57, (3aS,6aR)Hexahydrofuro[2,3-b]furan-3-yl N-(1S,2R)-1-benzyl-3-[(cyclopentyloxy)(1H-indazol-5-ylsulfonyl)amino]-2-hydroxypropylcarbamate] | ≤ 100 nM | < 1 nM | – | –
18 | COC(=O)Nc1nc2cc(S(=O)(=O)N(C[C@@H](O)[C@H](Cc3ccccc3)NC(=O)[C@H](CC(N)=O)NC(=O)c3ccc4ccccc4n3)OC3CCCC3)ccc2[nH]1 [Compound 51, (2S)-4-Amino-4-oxo-2-[(2-quinolinylcarbonyl)amino]butanamido N-(1S,2R)-1-benzyl-3-[(cyclopentyloxy)(2-{(methoxycarbonyl)amino]-1H-benzimidazol-5-ylsulfonyl)amino]-2-hydroxypropylcarbamate] | 100 to 500 nM | < 1 nM | – | –
19 | COc1ccc(S(=O)(=O)N(C[C@@H](O)[C@H](Cc2ccccc2)NC(=O)OC(C)(C)C)OC(C)C)cc1 [Compound 6] | > 1000 nM | – | – | 10 to 100 nM
20 | NC(=O)COc1cccc(S(=O)(=O)N(C[C@@H](O)[C@H](Cc2ccccc2)NC(=O)OC2CO[C@H]3OCC[C@@H]23)OC2CCCC2)c1 (stereo partly drawn) [Compound 136, (3R,3aS,6aR)hexahydrofuro[2,3-b]furan-3-yl N-(1S,2R)-3-[[3-(2-amino-2-oxoethoxy)phenyl]sulfonyl(cyclopentyloxy)amino]-1-benzyl-2-hydroxypropylcarbamate] | – | < 1 nM | ≤ 100 nM | –
21 | CC(C)ON(C[C@@H](O)[C@H](Cc1ccccc1)NC(=O)OC(C)(C)C)S(=O)(=O)c1ccc2[nH]c(=O)[nH]c2c1 [Compound 4] | > 1000 nM | 10 to 100 nM | – | –
22 | CC(C)ON(CC(O)C(Cc1ccccc1)NC(=O)OC1COC2OCCC12)S(=O)(=O)c1ccc2nc(NS(C)(=O)=O)n(Cc3ccccc3)c2c1 (centres unmarked) [Compound 118] | 500 to 1000 nM | > 100 nM | – | –
23 | NC(=O)c1cccc(S(=O)(=O)N(C[C@@H](O)[C@H](Cc2ccccc2)NC(=O)O[C@H]2CO[C@H]3OCC[C@H]32)OC2CCCC2)c1 [Example 173, (3R,3aS,6aR)hexahydrofuro[2,3-b]furan-3-yl N-(1S,2R)-3[[(3-carbamoylphenyl)sulfonyl](cyclopentyloxy)amino]-1-benzyl-2-hydroxypropyl carbamate] | ≤ 100 nM | < 1 nM | – | –
24 | O=C(N[C@@H](Cc1ccccc1)[C@H](O)CN(OC1CCOCC1)S(=O)(=O)c1ccc2c(c1)OCCO2)O[C@H]1CO[C@H]2OCC[C@H]21 [Compound 150, (3R,3aS,6aR)hexahydrofuro[2,3-b]furan-3-yl 1-benzyl-3-[(2,3-dihydro-1,4-benzodioxin-6-ylsulfonyl)(tetrahydro-2H-pyran-4-yloxy)amino]-2-hydroxypropylcarbamate] | ≤ 100 nM | < 1 nM | – | –
25 | COc1ccc(S(=O)(=O)N(C[C@@H](O)[C@H](Cc2ccccc2)NC(=O)OCc2ccccc2)OC2CCCC2)cc1 [Compound 24, Phenylmethyl N-((1S,2R)-1-benzyl-3-(cyclopentyloxy)[(4-methoxyphenyl)sulfonyl]amino-2-hydroxypropyl)carbamate] | > 1000 nM | < 1 nM | – | –
